Patent EP3061750A1, “PYRAZOLE AMIDE COMPOUND CONTAINING DIPHENYL ETHER, AND APPLICATION THEREOF, AND PESTICIDE COMPOSITION” (Central China Normal University, priority 2013, dated 2015)
Read-outs that look alike come from different tables or passages of the source.

Key:
succinate dehydrogenase = target: T1, succinate dehydrogenase (Sus scrofa, UniProt A5GZW8+D0VWV4+Q007T0); experiment: inhibitory activity on succinate dehydrogenase (DCIP reduction at 600 nm); assay type: biochemical, pig
T1 construct: succinate dehydrogenase, which was isolated from pig hearts; from tissue; host or cells: pig heart
Protocol: This test was used to determine the inhibitory activity on the succinate dehydrogenase of the compounds prepared in Example 1, Preparation Examples 1 and 2 .
The enzyme used in the test example was succinate dehydrogenase, which was isolated from pig hearts.
Test Method: total volume was 1.8ml, the system comprised 100mM Na2HPO4-NaH2PO4 buffer (pH7.4), 0.3mM EDTA, 20mM sodium succinate, 53µM DCIP (2,6-dichloro indophenol sodium), 2nM succinate dehydrogenase. In water bath with 23 °C of constant temperature and 600rpm magnetic stirring, the reduction of the light absorption of substrate DCIP was monitored at a wavelength of 600nm, the experimental points within the linear range were collected, that is, the experimental points in which the consumption of substrate was controlled not exceeding 5% were collected. The molar extinction coefficient of DCIP was 21mM^-1cm^-1. The reduction amount of DCIP during the reaction time was calculated and linear slope was fitted, and then the initial velocity of the reaction was obtained by deducting the baseline slope.

[1] = system: Cucumber powdery mildew (Sphaerotheca uliginea); experiment: pot in vivo assay of bactericidal activity, cucumber powdery mildew; conditions: for pest or weed control at 200 µg/mL: Cucumis sativus, read-out: Efficacy(%) cucumber powery mildew
Source text: (§1) This test is used to determine the bactericidal activity of the compounds prepared in Example 1, Preparation Examples 1 and 2.
(§2) The targets used in the test example are rice sheath blight and cucumber powdery mildew.
(§3) Test Method: According to "Standard Practice for determination of pesticide biological activity (SOP)", pyrazole amide compound containing diphenyl ether was dispensed to 5% emulsifiable concentrates (hereinafter referred to as 5% EC), […] method (pot in vivo assay). The screening results on the two test targets of the compounds prepared in Example 1, Preparation Examples 1 and 2 were shown in Table 4.
Cucumber powdery mildew (Sphaerotheca uliginea)
A cucumber seedling with uniform growth in true leaf stage was chosen, and dried in shade for 24h after spray treatment. Fresh cucumber powdery mildew spores on the cucumber leaves were collected and washed, and filtered through a double gauze to prepare a spore suspension with concentration of about 100,000 / ml, then spray inoculation was applied. The test materials inoculated were moved into artificial climate with relative humidity of 60-70% and temperature of 21-23 °C (indoor lighting), after about 10 days, investigating and grading were carried out according to the incidence of the blank control, and the control effect was calculated according to the disease index.
(§4) Investigation method and grading standard adopted "Guidelines for the field efficacy trials of pesticides", and the control effect was calculated with the disease index. The disease index = Σ(number of diseased leaves at each grade×relative grade value) × 100/(total number of leaves×9); [formula] Control effect (%) = (disease index of control−disease index of treated) × 100/disease index of control. [formula]

[2] = system: Rice sheath blight (Rhizoctonia solani); experiment: pot in vivo assay of bactericidal activity, rice sheath blight; conditions: for pest or weed control at 200 µg/mL: Rhizoctonia solani, read-out: Efficacy(%) rice sheath blight
Source text: as §1, §2
as §3, with “EC), the” for “EC),”
Rice sheath blight (Rhizoctonia solani)
Two potted rice seedlings with uniform growth in true leaf stage were chosen, and dried by air after spray treatment. The side of bacteria cake with mycelium was closely attached on the leaves, after cultured at 22-26 °C under dark light in a moisture preserving manner for 24h, then cultured with natural light for about 4 days. The diameter of disease spot of each inoculating point was measured by using a caliper after the control material was fully attacked by disease, and the control effect was calculated.
as §4

T1 sequence (Q007T0 29-280): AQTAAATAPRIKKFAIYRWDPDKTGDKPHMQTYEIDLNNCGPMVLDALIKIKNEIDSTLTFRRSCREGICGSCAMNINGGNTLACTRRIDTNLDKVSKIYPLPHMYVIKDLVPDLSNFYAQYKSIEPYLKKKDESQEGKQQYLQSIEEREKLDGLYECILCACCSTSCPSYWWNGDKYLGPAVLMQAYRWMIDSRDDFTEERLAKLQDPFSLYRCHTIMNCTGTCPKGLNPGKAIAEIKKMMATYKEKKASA
T1 sequence (D0VWV4 30-169): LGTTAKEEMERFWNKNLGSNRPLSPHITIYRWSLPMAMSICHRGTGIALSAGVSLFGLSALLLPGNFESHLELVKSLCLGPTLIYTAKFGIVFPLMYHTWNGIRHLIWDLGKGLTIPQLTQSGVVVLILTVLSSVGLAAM
T1 sequence (A5GZW8 57-159 limits assumed): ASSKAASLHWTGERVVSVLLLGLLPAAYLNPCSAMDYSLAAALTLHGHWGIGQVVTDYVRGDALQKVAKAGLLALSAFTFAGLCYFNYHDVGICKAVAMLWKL
T1 sequence (Q0QF01 43-664 partner): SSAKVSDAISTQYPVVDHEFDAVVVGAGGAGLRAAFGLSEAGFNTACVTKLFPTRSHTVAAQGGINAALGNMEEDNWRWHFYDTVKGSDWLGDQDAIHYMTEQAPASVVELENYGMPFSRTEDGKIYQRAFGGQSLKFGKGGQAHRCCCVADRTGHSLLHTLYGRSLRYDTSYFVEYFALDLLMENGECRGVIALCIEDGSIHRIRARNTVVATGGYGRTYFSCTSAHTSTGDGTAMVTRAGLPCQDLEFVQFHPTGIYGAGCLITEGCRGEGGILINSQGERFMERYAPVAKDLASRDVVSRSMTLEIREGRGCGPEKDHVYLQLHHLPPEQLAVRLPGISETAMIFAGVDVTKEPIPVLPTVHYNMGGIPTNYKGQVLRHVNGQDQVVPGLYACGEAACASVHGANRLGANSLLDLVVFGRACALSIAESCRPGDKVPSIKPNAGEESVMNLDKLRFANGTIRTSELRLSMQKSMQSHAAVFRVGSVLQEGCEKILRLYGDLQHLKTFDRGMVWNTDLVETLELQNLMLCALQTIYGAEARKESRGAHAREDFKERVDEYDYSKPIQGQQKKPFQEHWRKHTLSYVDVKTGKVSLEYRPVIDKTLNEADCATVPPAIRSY

Cn1cc(C(=O)Nc2ccccc2Oc2ccc(C#N)cc2)c(C(F)F)n1 [III-7]
IC50 (succinate dehydrogenase): > 100 µM
pest or weed control at 200 µg/mL [1]: 0%
pest or weed control at 200 µg/mL [2]: 45%

Cn1cc(C(=O)Nc2ccccc2Oc2ccccc2Cl)c(C(F)(F)F)n1 [III-8]
IC50 (succinate dehydrogenase): 1.98 ± 1.39 µM
pest or weed control at 200 µg/mL [1]: 0%
pest or weed control at 200 µg/mL [2]: 81.9%

Cn1cc(C(=O)Nc2ccccc2Oc2ccc(Cl)cc2)c(C(F)(F)F)n1 [III-9]
IC50 (succinate dehydrogenase; succinate dehydrogenase isolated from pig hearts, pH7.4, 23 °C): 4.9 ± 1.28 µM
pest or weed control at 200 µg/mL [1]: 0%
pest or weed control at 200 µg/mL [2]: 66.3%

Cn1cc(C(=O)Nc2ccccc2Oc2ccc(Cl)cc2)c(C(F)F)n1 [III-10]
IC50 (succinate dehydrogenase): 2.02 ± 1.15 µM
pest or weed control at 200 µg/mL [1]: 0%
pest or weed control at 200 µg/mL [2]: 68.3%

Cn1cc(C(=O)Nc2ccccc2Oc2ccc(C(F)(F)F)cc2)c(C(F)(F)F)n1 [III-11]
IC50 (succinate dehydrogenase): 3.17 ± 1.12 µM
pest or weed control at 200 µg/mL [1]: 0%
pest or weed control at 200 µg/mL [2]: 56.3%

Cn1cc(C(=O)Nc2ccccc2Oc2ccc(C(F)(F)F)cc2)c(C(F)F)n1 [III-12]
IC50 (succinate dehydrogenase): 1.62 ± 1.35 µM
pest or weed control at 200 µg/mL [1]: 0%
pest or weed control at 200 µg/mL [2]: 72.3%

Cc1cccc(Oc2ccccc2NC(=O)c2cn(C)nc2C(F)(F)F)c1C [III-13]
IC50 (succinate dehydrogenase): 9.86 ± 1.27 µM
pest or weed control at 200 µg/mL [1]: 0%
pest or weed control at 200 µg/mL [2]: 63.2%

Cc1cccc(Oc2ccccc2NC(=O)c2cn(C)nc2C(F)F)c1C [III-14]
IC50 (succinate dehydrogenase): 3.22 ± 1.33 µM
pest or weed control at 200 µg/mL [1]: 0%
pest or weed control at 200 µg/mL [2]: 65.9%

Cc1cc(C)cc(Oc2ccccc2NC(=O)c2cn(C)nc2C(F)(F)F)c1 [III-15]
IC50 (succinate dehydrogenase): 5.12 ± 1.04 µM
pest or weed control at 200 µg/mL [1]: 0%
pest or weed control at 200 µg/mL [2]: 55.2%

Cc1cc(C)cc(Oc2ccccc2NC(=O)c2cn(C)nc2C(F)F)c1 [III-16]
IC50 (succinate dehydrogenase): 2.03 ± 1.22 µM
pest or weed control at 200 µg/mL [1]: 0%
pest or weed control at 200 µg/mL [2]: 50%

Cc1nc(C(F)(F)F)c(C(=O)Nc2c(Br)cc(OC(F)(F)F)cc2Br)s1 [Thifluzamide, reference compound]
inhibition at 0.03 µM (succinate dehydrogenase; concentration 0.03 µM, read-out: inhibition ratio(%)): 0%
inhibition at 0.05 µM (succinate dehydrogenase; concentration 0.05 µM, read-out: inhibition ratio(%)): 9.21%
inhibition at 0.1 µM (succinate dehydrogenase; concentration 0.1 µM, read-out: inhibition ratio(%)): 29.7%
inhibition at 0.2 µM (succinate dehydrogenase; concentration 0.2 µM, read-out: inhibition ratio(%)): 47.6%
inhibition at 0.3 µM (succinate dehydrogenase; concentration 0.3 µM, read-out: inhibition ratio(%)): 59.5%
inhibition at 0.5 µM (succinate dehydrogenase; concentration 0.5 µM, read-out: inhibition ratio(%)): 71.7%
inhibition at 1 µM (succinate dehydrogenase; concentration 1 µM, read-out: inhibition ratio(%)): 77.9%
inhibition at 10 µM (succinate dehydrogenase; concentration 10 µM, read-out: inhibition ratio(%)): 94.5%
inhibition at 50 µM (succinate dehydrogenase; concentration 50 µM, read-out: inhibition ratio(%)): 96.7%
IC50 (succinate dehydrogenase; succinate dehydrogenase isolated from pig hearts, pH7.4, 23 °C, read-out: IC50): 0.2 ± 0.0121 µM
efficacy on cucumber powery mildew(%) ([1]; concentration 12.5 mg/L): 0%
efficacy on cucumber powery mildew(%) ([1]; concentration 25 mg/L): 22.22%
efficacy on cucumber powery mildew(%) ([1]; concentration 50 mg/L): 62.96%
efficacy on cucumber powery mildew(%) ([1]; concentration 100 mg/L): 100%
efficacy on rice sheath bilght(%) ([2]; concentration 1.5 mg/L): 0%
efficacy on rice sheath bilght(%) ([2]; concentration 3.25 mg/L): 13.38%
efficacy on rice sheath bilght(%) ([2]; concentration 6.25 mg/L): 54.30%
efficacy on rice sheath bilght(%) ([2]; concentration 12.5 mg/L): 61.36%
efficacy on rice sheath bilght(%) ([2]; concentration 25 mg/L): 81.85%
efficacy on rice sheath bilght(%) ([2]; concentration 50 mg/L): 100%
efficacy on rice sheath bilght(%) ([2]; concentration 100 mg/L): 100%
